In ChEMBL document CHEMBL1201862, “PubChem BioAssay data set” (2004):
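Five concentrations, 48 hours, 96-well plates. GI50 is the concentration that inhibits growth by half.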 Calls of active or inactive are those of the source. Cut-off read from the data, not from the text of the source: active = GI50 up to about 1.1 µM and inactive = higher.

Tests used:
Assay in all cases: growth of human tumour cells (NCI), 48 h
SK-OV-3 = tested on: SK-OV-3
NCI-H522 = tested on: NCI-H522
T47D = tested on: T47D
ACHN = tested on: ACHN
HCT-116 = tested on: HCT-116
SR = tested on: SR
RPMI-8226 = tested on: RPMI-8226
BT-549 = tested on: BT-549
EKVX = tested on: EKVX
M14 = tested on: M14
MOLT-4 = tested on: MOLT-4
LOX IMVI = tested on: LOX IMVI
OVCAR-5 = tested on: OVCAR-5
A549 = tested on: A549
SNB-19 = tested on: SNB-19
COLO 205 = tested on: COLO 205
SK-MEL-28 = tested on: SK-MEL-28
HOP-92 = tested on: HOP-92
HCC 2998 = tested on: HCC 2998

| SMILES | GI50 (SK-OV-3) | GI50 (NCI-H522) | GI50 (T47D) | GI50 (ACHN) | GI50 (HCT-116) | GI50 (SR) | GI50 (RPMI-8226) | GI50 (BT-549) | GI50 (EKVX) | GI50 (M14) | GI50 (MOLT-4) | GI50 (LOX IMVI) | GI50 (OVCAR-5) | GI50 (A549) | GI50 (SNB-19) | GI50 (COLO 205) | GI50 (SK-MEL-28) | GI50 (HOP-92) | GI50 (HCC 2998) |
| --- | --- | --- | --- | --- | --- | --- | --- | --- | --- | --- | --- | --- | --- | --- | --- | --- | --- | --- | --- |
| CC(=O)Nc1cc(CN2CCCCC2)c(O)c2ncccc12 | 36.5 µM (inactive) | 37.3 µM (inactive) | 11.8 µM (inactive) | 17.8 µM (inactive) | 20.9 µM (inactive) | 8.75 µM (inactive) | 12.1 µM (inactive) | 77.4 µM (inactive) | 30.4 µM (inactive) | 15.4 µM (inactive) | 10.1 µM (inactive) | 20.2 µM (inactive) | 34.8 µM (inactive) | 32.9 µM (inactive) | 39.7 µM (inactive) | 49.7 µM (inactive) | 27.3 µM (inactive) | 49.5 µM (inactive) |  |
| c1ccc2sc(C3(N4CCC5(CC4)OCCO5)CCCCC3)cc2c1 | > 100 µM (inactive) | 78 µM (inactive) | > 100 µM (inactive) | > 100 µM (inactive) | 58.1 µM (inactive) | 7.89 µM (inactive) | 29.4 µM (inactive) | > 100 µM (inactive) | > 100 µM (inactive) | 61.1 µM (inactive) | 29.2 µM (inactive) | > 100 µM (inactive) | 55.5 µM (inactive) | > 100 µM (inactive) | > 100 µM (inactive) | 48 µM (inactive) | > 100 µM (inactive) | 25.8 µM (inactive) | 27.7 µM (inactive) |
| CC(C)(C)OC(=O)N1CCC2(C)CC(=O)CC=C12 (configuration not stated) | > 100 µM (inactive) | 45.4 µM (inactive) | > 100 µM (inactive) | > 100 µM (inactive) | 81.8 µM (inactive) | 72.4 µM (inactive) |  | > 100 µM (inactive) | > 100 µM (inactive) | > 100 µM (inactive) | > 100 µM (inactive) | > 100 µM (inactive) | > 100 µM (inactive) | > 100 µM (inactive) | > 100 µM (inactive) | > 100 µM (inactive) | > 100 µM (inactive) | > 100 µM (inactive) | > 100 µM (inactive) |
| C[C@]12CCC(=O)C=C1C[C@@H](O)[C@@H]1[C@@H]2CC[C@@]2(C)[C@H]1CC[C@]2(C)O | > 100 µM (inactive) | > 100 µM (inactive) | > 100 µM (inactive) | > 100 µM (inactive) | > 100 µM (inactive) | > 100 µM (inactive) | > 100 µM (inactive) | > 100 µM (inactive) | > 100 µM (inactive) | > 100 µM (inactive) |  | > 100 µM (inactive) | > 100 µM (inactive) | > 100 µM (inactive) | > 100 µM (inactive) | > 100 µM (inactive) | > 100 µM (inactive) | > 100 µM (inactive) | > 100 µM (inactive) |
| Clc1cccc(Cl)c1C(Nc1nncs1)Nc1nncs1 | 32 µM (inactive) | 22.3 µM (inactive) | 56.8 µM (inactive) | 73.6 µM (inactive) | 28.6 µM (inactive) | 4.84 µM (inactive) | 46 µM (inactive) | 73.3 µM (inactive) | 43.9 µM (inactive) | 36.2 µM (inactive) | 17.3 µM (inactive) | 21.8 µM (inactive) | 36.5 µM (inactive) | 48.9 µM (inactive) | 52 µM (inactive) | 35.4 µM (inactive) | 21.8 µM (inactive) | > 100 µM (inactive) |  |
| C[Si](C)(c1ccc(C(=O)O)cc1)c1ccc(C(=O)O)cc1 | > 100 µM (inactive) | > 100 µM (inactive) | > 100 µM (inactive) | > 100 µM (inactive) | > 100 µM (inactive) | > 100 µM (inactive) | > 100 µM (inactive) | > 100 µM (inactive) | > 100 µM (inactive) | > 100 µM (inactive) | > 100 µM (inactive) | > 100 µM (inactive) | > 100 µM (inactive) | > 100 µM (inactive) | > 100 µM (inactive) | > 100 µM (inactive) | > 100 µM (inactive) | > 100 µM (inactive) |  |
| COc1c(NC(C)=O)c2ccccc2c2ccccc12 |  | > 100 µM (inactive) | > 100 µM (inactive) | > 100 µM (inactive) | > 100 µM (inactive) | > 100 µM (inactive) |  | > 100 µM (inactive) | > 100 µM (inactive) | > 100 µM (inactive) | 66.5 µM (inactive) | > 100 µM (inactive) | > 100 µM (inactive) | > 100 µM (inactive) | > 100 µM (inactive) |  | > 100 µM (inactive) | 42.2 µM (inactive) |  |
| C=CC(Br)(CBr)CCC(Br)C(C)C (configuration not stated) | 16.6 µM (inactive) | 1.49 µM (inactive) | 0.333 µM (active) | 8.15 µM (inactive) | 5.57 µM (inactive) | 1.62 µM (inactive) | 1.25 µM (inactive) | 3.14 µM (inactive) | 18.3 µM (inactive) | 4.16 µM (inactive) | 1.91 µM (inactive) | 1.53 µM (inactive) | 15.6 µM (inactive) | 14.1 µM (inactive) | 9.84 µM (inactive) | 5.93 µM (inactive) | 3.49 µM (inactive) | 10.7 µM (inactive) |  |
| CCn1c(SCC(=O)NNC(=S)Nc2ccc([N+](=O)[O-])cc2)nc2ccccc2c1=O | > 100 µM (inactive) | 39.8 µM (inactive) | 64.3 µM (inactive) | > 100 µM (inactive) | 35.3 µM (inactive) | 23 µM (inactive) | 29.9 µM (inactive) | 53.8 µM (inactive) | > 100 µM (inactive) | > 100 µM (inactive) | 23.2 µM (inactive) | 54.3 µM (inactive) | > 100 µM (inactive) | > 100 µM (inactive) | 81.7 µM (inactive) | 47.5 µM (inactive) | 57.5 µM (inactive) |  | 50.1 µM (inactive) |
| c1ccc2c(c1)nc1n2CCSC1 | > 100 µM (inactive) |  | > 100 µM (inactive) | > 100 µM (inactive) | > 100 µM (inactive) | > 100 µM (inactive) | > 100 µM (inactive) | > 100 µM (inactive) | > 100 µM (inactive) | > 100 µM (inactive) | > 100 µM (inactive) | > 100 µM (inactive) | > 100 µM (inactive) | > 100 µM (inactive) | > 100 µM (inactive) | > 100 µM (inactive) | > 100 µM (inactive) | > 100 µM (inactive) | > 100 µM (inactive) |
| CN1C2CCC1CC(CCOC(c1ccc(F)cc1)c1ccc(F)cc1)C2 (configuration not stated) | 16.6 µM (inactive) | 17.1 µM (inactive) | 18.5 µM (inactive) | 17.1 µM (inactive) | 12.7 µM (inactive) | 14.8 µM (inactive) | 18.6 µM (inactive) | 16.9 µM (inactive) | 13.9 µM (inactive) | 16.4 µM (inactive) | 11.9 µM (inactive) | 16.6 µM (inactive) | 15.9 µM (inactive) | 19.4 µM (inactive) | 20.7 µM (inactive) | 11.7 µM (inactive) | 16 µM (inactive) | 15.7 µM (inactive) |  |
| O=C(NN1C(=O)C=CC1=O)c1ccccc1Nc1ccccc1C(=O)NN1C(=O)C=CC1=O |  | > 100 µM (inactive) | > 100 µM (inactive) | > 100 µM (inactive) | > 100 µM (inactive) | > 100 µM (inactive) | > 100 µM (inactive) | > 100 µM (inactive) | > 100 µM (inactive) | > 100 µM (inactive) | > 100 µM (inactive) | > 100 µM (inactive) | > 100 µM (inactive) |  | > 100 µM (inactive) | > 100 µM (inactive) | > 100 µM (inactive) | > 100 µM (inactive) | > 100 µM (inactive) |
| CN(C)c1ccc(/C=C2\C[C@H]3[C@@H]4CCC5=CC(=O)CC[C@]5(C)[C@H]4CC[C@]3(C)C2=O)cc1 | > 100 µM (inactive) |  | 17.4 µM (inactive) | 29.4 µM (inactive) | 24.7 µM (inactive) | 17.7 µM (inactive) | 17.5 µM (inactive) | 51.2 µM (inactive) | 19.2 µM (inactive) | 43.9 µM (inactive) | 14.8 µM (inactive) | 20.8 µM (inactive) | > 100 µM (inactive) | 38 µM (inactive) | > 100 µM (inactive) | 21.7 µM (inactive) | > 100 µM (inactive) | 22.4 µM (inactive) |  |
| OCC(S)CS.[Bi] (configuration not stated) | 31.6 µM (inactive) | 1.58 µM (inactive) | 8.89 µM (inactive) | 16.5 µM (inactive) | 17.7 µM (inactive) | 4.06 µM (inactive) | 2.93 µM (inactive) | 9.79 µM (inactive) | 18 µM (inactive) | 8.36 µM (inactive) |  | 20.7 µM (inactive) | 19.9 µM (inactive) | 28 µM (inactive) | 13.7 µM (inactive) | 14.5 µM (inactive) | 12 µM (inactive) | 23.7 µM (inactive) | 13.6 µM (inactive) |
| CCCCNC(=S)c1ccc(OC(=O)Nc2ccc(Cl)cc2)cc1 | > 100 µM (inactive) | 24.5 µM (inactive) | 58.6 µM (inactive) | 70.6 µM (inactive) | 38.4 µM (inactive) | 16.3 µM (inactive) | 65.2 µM (inactive) | 20.6 µM (inactive) | 42.2 µM (inactive) | 9.27 µM (inactive) | 11.4 µM (inactive) | 0.573 µM (active) | 40.3 µM (inactive) | 39.1 µM (inactive) | > 100 µM (inactive) | 15.9 µM (inactive) | 22.3 µM (inactive) |  | > 100 µM (inactive) |
| CC(=O)Oc1ccc2c(c1)O/C(=C\c1ccc(N(C)C)cc1)C2=O | > 100 µM (inactive) | 25.9 µM (inactive) | > 100 µM (inactive) | > 100 µM (inactive) | 85.5 µM (inactive) | 37.2 µM (inactive) | 54.6 µM (inactive) | 68.4 µM (inactive) | > 100 µM (inactive) | > 100 µM (inactive) | 47.1 µM (inactive) |  |  | > 100 µM (inactive) | 53.8 µM (inactive) | > 100 µM (inactive) | > 100 µM (inactive) |  | > 100 µM (inactive) |
